Assay results from patent US7101878B1 (Agouron Pharmaceuticals, Inc., priority 1998, dated 2006).

Key:
rat GnRH receptor = target: T1, rat GnRH receptor (Rattus norvegicus, UniProt P30969); assay: Radioligand binding, 125I-GnRH-A, rat pituitary membranes; design: membranes were prepared from rat pituitary; from tissue; host or cells: rat pituitary; conditions: read-out: rGnRH IC50
T1 sequence (P30969 1-327): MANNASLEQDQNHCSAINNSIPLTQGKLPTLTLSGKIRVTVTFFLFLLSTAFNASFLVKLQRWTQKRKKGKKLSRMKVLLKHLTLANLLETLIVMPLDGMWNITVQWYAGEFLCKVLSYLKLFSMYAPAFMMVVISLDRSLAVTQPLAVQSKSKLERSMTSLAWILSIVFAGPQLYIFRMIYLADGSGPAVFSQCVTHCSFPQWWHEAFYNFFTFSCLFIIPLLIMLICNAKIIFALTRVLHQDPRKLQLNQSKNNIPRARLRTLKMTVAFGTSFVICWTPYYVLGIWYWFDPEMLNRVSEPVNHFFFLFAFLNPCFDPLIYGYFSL
Procedure: All compounds were diluted in 1% DMSO (final assay concentration) in binding assay buffer. […] Reactions were terminated by rapid filtration onto 96-well Packard GF/C filters soaked in 0.1% polyethyleneimine. Filters were washed three times with PBS buffer, dried and counted on a Packard Topcount by liquid scintillation counting.
Assay conditions were identical for assessing compound activities at other species. […] IC50 values for control peptides and test compounds were calculated utilizing GraphPad Prism™ software.
The reaction mixture was vortexed and incubated for 1 min at room temperature. After one min, the mixture was vortexed and allowed to incubate for an additional minute. 2 ml of 0.5 M acetic acid/1% BSA was added to the reaction tube and the mixture was added to a C18 Sep-Pak cartridge. The cartridge was washed with subsequent washes of 5 ml H2O and 5 ml 0.5M acetic acid and then eluted with 5×1 ml of 60% CH3CN/40% 0.5M acetic acid. The eluate was diluted with 3× volume of HPLC buffer A (0.1% TFA in H2O) and loaded onto a C18 column. […] The radioactive fractions (750 ed/fraction) are collected into clean polypropylene tubes containing 100 μl of 10% BSA. Fractions were assessed for biological activity by radioligand binding.

human GnRH receptor = target: T2, human GnRH receptor (Homo sapiens, UniProt P30968); assay: Radioligand binding, 125I-GnRH-A displacement, membranes of HEK 293 cells with human GnRH receptor; conditions: read-out: hGnRH IC50
T2 construct: expressed in transfected cells; host or cells: HEK 293 (hGnRH-R/293, from Dr. Stuart Sealfon)
T2 sequence (P30968 1-328): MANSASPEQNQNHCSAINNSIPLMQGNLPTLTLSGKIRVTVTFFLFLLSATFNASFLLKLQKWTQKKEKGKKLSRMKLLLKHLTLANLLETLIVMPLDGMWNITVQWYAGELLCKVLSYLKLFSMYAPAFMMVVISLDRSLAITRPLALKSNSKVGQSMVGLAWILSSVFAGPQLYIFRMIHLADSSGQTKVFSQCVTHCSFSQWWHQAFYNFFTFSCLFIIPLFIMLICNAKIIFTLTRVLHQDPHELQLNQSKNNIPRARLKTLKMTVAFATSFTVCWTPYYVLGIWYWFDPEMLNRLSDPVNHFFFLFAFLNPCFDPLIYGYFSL
In short: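 After filtration and PBS washes, bound radioactivity was counted by scintillation and IC50 derived. Identical conditions applied for non-human receptors.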

mouse GnRH receptor = target: T3, mouse GnRH receptor (Mus musculus, UniProt Q01776); assay: Radioligand binding, 125I-GnRH-A, 293 cells expressing mouse GnRH receptors; conditions: for IC50: read-out: mGnRH IC50; for inhibition at 10 µM: read-out: % Inhib. @ 10 uM mGnRH; for remaining activity at 10 µM: 1 h, substrate remaining, 10 uM compound, closer to zero = closer to 100% inhibition, read-out: S%R 10 uM mGnRHR
T3 construct: expressed in transfected cells; host or cells: 293 cells
T3 sequence (Q01776 1-327): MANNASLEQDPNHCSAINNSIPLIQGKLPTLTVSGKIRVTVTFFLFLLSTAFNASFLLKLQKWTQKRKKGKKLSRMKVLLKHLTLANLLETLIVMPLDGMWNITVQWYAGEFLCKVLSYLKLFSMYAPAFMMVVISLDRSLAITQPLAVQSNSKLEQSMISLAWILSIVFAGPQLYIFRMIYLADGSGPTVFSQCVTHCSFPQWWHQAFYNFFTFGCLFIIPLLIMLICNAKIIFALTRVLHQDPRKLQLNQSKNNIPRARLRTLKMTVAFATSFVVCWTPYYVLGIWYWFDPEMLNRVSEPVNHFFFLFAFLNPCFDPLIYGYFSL
In short: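 Bound label captured on 0.1% polyethyleneimine-treated GF/C filters, washed three times with PBS, counted. IC50 derived; identical set-up for every species.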

[1] = Pharmacokinetic studies / bioavailability in rats; type: in vivo, rat; conditions: rat female
[2] = female, rat, plasma, po, 10 mg/kg, p.o. 10 mg/kg, 5 mg/ml solution in 10% DMSO 10% cremophor 80% saline

Cc1cnc(CNC(=O)c2ccc(Cc3c(C)cc(C)c(Br)c3C)o2)cn1 [Compound 80]
IC50 (rat GnRH receptor): 5.61 µM

COc1cc(OC)c(NC(=O)c2ccc(Cc3cc4c(cc3C)C(C)(C)CC4(C)C)o2)c(OC)c1 [Compound 300]
IC50 (human GnRH receptor): 0.0032 µM
IC50 (mouse GnRH receptor): 0.0031 µM
Cmax [1, 2]: 360 nM
Tmax [1, 2]: 1 h
half-life ([1]; female, rat, plasma): 2.1 h
Fp.o. ([1]; 5 mg/ml solution in 10% DMSO 10% cremophor 80% saline): 10% (10 mg/kg)^10

Cc1cc2c(cc1Cc1ccc(C(=O)Nc3ccc(C(N)=O)cc3)o1)C(C)(C)CCC2(C)C [Compound 102]
IC50 (human GnRH receptor): 1.18 µM
IC50 (rat GnRH receptor): 0.97 µM

Cc1cc2c(cc1Cc1ccc(C(=O)NCCCN3CCOCC3)o1)C(C)(C)CCC2(C)C [Compound 83]
IC50 (human GnRH receptor): 0.62 µM
IC50 (rat GnRH receptor): 1.74 µM

COc1ccc(CNC(=O)c2ccc(Cc3cc4c(cc3C)C(C)(C)CCC4(C)C)o2)c2ccccc12 [Compound 129]
IC50 (rat GnRH receptor): 1.39 µM

Cc1cc2c(cc1Cc1ccc(C(=O)NCC3CCC(CNCc4c(C)noc4C)CC3)o1)C(C)(C)CCC2(C)C (centres unmarked) [Compound 90]
IC50 (human GnRH receptor): 0.56 µM
IC50 (rat GnRH receptor): 1.26 µM

Cc1cc2c(cc1Cc1ccc(C(=O)NCC3CCN(C(=O)OC(C)(C)C)CC3)o1)C(C)(C)CCC2(C)C [Compound 87]
IC50 (human GnRH receptor): 0.27 µM
IC50 (rat GnRH receptor): 3.31 µM

Cc1cc2c(cc1Cc1ccc(C(=O)NCC3CCC(CNC(=O)C(F)(F)F)CC3)o1)C(C)(C)CCC2(C)C (centres unmarked) [Compound 89]
IC50 (human GnRH receptor): 0.25 µM
IC50 (rat GnRH receptor): 2.73 µM

Cc1cc2c(cc1Cc1ccc(C(=O)NC3CCN(c4nccc(NCC5CCCO5)n4)C3)o1)C(C)(C)CCC2(C)C (centres unmarked) [Compound 117]
IC50 (human GnRH receptor): 1.81 µM
IC50 (rat GnRH receptor): 3 µM

Cc1cc2c(cc1Cc1ccc(C(=O)Nc3cccnc3)o1)C(C)(C)CCC2(C)C [Compound 78]
IC50 (rat GnRH receptor): 1.3 µM

COC(=O)c1cc(OC)c(OC)c(OC)c1NC(=O)c1ccc(Cc2cc3c(cc2C)C(C)(C)CCC3(C)C)o1 [Compound 118]
IC50 (human GnRH receptor): 0.38 µM
IC50 (rat GnRH receptor): 0.43 µM

Cc1ccc(C)c(Cc2ccc(C(=O)NCc3cnc(C)cn3)o2)c1 [Compound 77]
IC50 (human GnRH receptor): > 10 µM
IC50 (rat GnRH receptor): 8.45 µM

Cc1cc2c(cc1Cc1ccc(C(=O)N3CCC(CNc4nccc(NCC5CCCO5)n4)CC3)o1)C(C)(C)CCC2(C)C (centres unmarked) [Compound 86.5]
IC50 (human GnRH receptor): 2.57 µM
IC50 (rat GnRH receptor): 2.05 µM

Cc1cc2c(cc1Cc1ccc(C(=O)Nc3ccc(S(=O)(=O)Nc4ccc(Cl)nn4)cc3)o1)C(C)(C)CCC2(C)C [Compound 107]
IC50 (human GnRH receptor): > 10 µM
IC50 (rat GnRH receptor): > 10 µM

Cc1cc2c(cc1Cc1ccc(C(=O)N3CCC(Nc4ccnc(NCC5CCCO5)n4)C3)o1)C(C)(C)CCC2(C)C (centres unmarked) [Compound 94.5]
IC50 (rat GnRH receptor): 4.83 µM

COc1cc(NC(=O)c2ccc(Cc3cc4c(cc3C)C(C)(C)CCC4(C)C)o2)cc(OC)c1OC [Compound 301]
IC50 (human GnRH receptor): 0.045 µM
IC50 (mouse GnRH receptor): 0.038 µM

Cc1cc2c(cc1Cc1ccc(C(=O)NC3CCC(N)CC3)o1)C(C)(C)CCC2(C)C (centres unmarked) [Compound 112]
IC50 (rat GnRH receptor): 7.78 µM

Cc1cc2c(cc1Cc1ccc(C(=O)NC[C@H]3CC[C@H](c4nc5ccccc5[nH]4)CC3)o1)C(C)(C)CCC2(C)C [Compound 85]
IC50 (rat GnRH receptor): > 10 µM

Cc1cc2c(cc1Cc1ccc(C(=O)Nc3ccc(C(N)=O)cc3)o1)C(C)(C)CCC2(C)C [Compound 108]
IC50 (rat GnRH receptor): 2.74 µM

Cc1cc2c(cc1Cc1ccc(C(=O)NCc3ccccc3-c3ccccc3)o1)C(C)(C)CCC2(C)C [Compound 67]
IC50 (rat GnRH receptor): 1.16 µM

Cc1cc2c(cc1Cc1ccc(C(=O)NCc3ccc(CNC(=O)C(F)(F)F)cc3)o1)C(C)(C)CCC2(C)C [Compound 104]
IC50 (rat GnRH receptor): 1.26 µM

Cc1cc2c(cc1Cc1ccc(C(=O)NC3CCN(C(=O)OC(C)(C)C)C3)o1)C(C)(C)CCC2(C)C (centres unmarked) [Compound 88]
IC50 (rat GnRH receptor): 2.34 µM

Cc1cc2c(cc1Cc1ccc(C(=O)NC3CCNC3)o1)C(C)(C)CCC2(C)C (centres unmarked) [Compound 82]
IC50 (rat GnRH receptor): 9.2 µM

Cc1cc2c(cc1Cc1ccc(C(=O)NC[C@@H](O)c3ccccc3)o1)C(C)(C)CCC2(C)C [Compound 124]
IC50 (rat GnRH receptor): 0.75 µM

Cc1cc(C)c(Cc2ccc(C(=O)NCc3cnc(C)cn3)o2)c(C)c1 [Compound 81]
IC50 (rat GnRH receptor): 8.08 µM

Cc1cc2c(cc1Cc1ccc(C(=O)NC3CCC(NC(=O)C(F)(F)F)CC3)o1)C(C)(C)CCC2(C)C (centres unmarked) [Compound 110]
IC50 (rat GnRH receptor): > 10 µM

Cc1cc(NS(=O)(=O)c2ccc(NC(=O)c3ccc(Cc4cc5c(cc4C)C(C)(C)CCC5(C)C)o3)cc2)no1 [Compound 114]
IC50 (rat GnRH receptor): 7 µM

Cc1cc2c(cc1Cc1ccc(C(=O)NC(CO)C(C)C)o1)C(C)(C)CCC2(C)C (centres unmarked) [drawing 1478]
inhibition at 10 µM (mouse GnRH receptor): 87%

COc1cccc(CN(Cc2cccc(Oc3cccc(C(F)(F)F)c3)c2)C(=O)c2ccc(Cc3cc4c(cc3C)C(C)(C)CCC4(C)C)o2)c1OC [Compound 690]
remaining activity at 10 µM (mouse GnRH receptor): 25%

Cc1cc2c(cc1Cc1ccc(C(=O)N(C)CC#N)o1)C(C)(C)CCC2(C)C [Compound 580]
remaining activity at 10 µM (mouse GnRH receptor): 18%

Cc1cc2c(cc1Cc1ccc(C(=O)N3CCCC3C(=O)OCc3ccccc3)o1)C(C)(C)CCC2(C)C (centres unmarked) [Compound 651]
remaining activity at 10 µM (mouse GnRH receptor): 15%

Cc1cc2c(cc1Cc1ccc(C(=O)N3CCc4ccccc4C3)o1)C(C)(C)CCC2(C)C [drawing 1422]
inhibition at 10 µM (mouse GnRH receptor): 70%

CCCNC(=O)c1ccc(Cc2cc3c(cc2C)C(C)(C)CCC3(C)C)o1 [Compound 687]
remaining activity at 10 µM (mouse GnRH receptor): 7%

Cc1ccc(N2CCN(C(=O)c3ccc(Cc4cc5c(cc4C)C(C)(C)CCC5(C)C)o3)CC2)c(C)c1 [Compound 565]
remaining activity at 10 µM (mouse GnRH receptor): 48%

COC(CN(C)C(=O)c1ccc(Cc2cc3c(cc2C)C(C)(C)CCC3(C)C)o1)OC [Compound 611]
remaining activity at 10 µM (mouse GnRH receptor): 11%

Cc1cc2c(cc1Cc1ccc(C(=O)NCc3cccc(NC(=O)N(Cc4ccccc4)c4ccccc4)c3)o1)C(C)(C)CCC2(C)C [Compound 511]
remaining activity at 10 µM (mouse GnRH receptor): 47%

Cc1cc2c(cc1Cc1ccc(C(=O)N(Cc3cccn3C)C3CCN(Cc4ccccc4)C3)o1)C(C)(C)CCC2(C)C (centres unmarked) [Compound 623]
remaining activity at 10 µM (mouse GnRH receptor): 2%

Cc1cc2c(cc1Cc1ccc(C(=O)NCCc3ccccn3)o1)C(C)(C)CCC2(C)C [Compound 507]
remaining activity at 10 µM (mouse GnRH receptor): -4%

COC(CNC(=O)c1ccc(Cc2cc3c(cc2C)C(C)(C)CCC3(C)C)o1)OC [Compound 607]
remaining activity at 10 µM (mouse GnRH receptor): -2%

Cc1cc2c(cc1Cc1ccc(C(=O)NCCC3=CCCCC3)o1)C(C)(C)CCC2(C)C [Compound 594]
remaining activity at 10 µM (mouse GnRH receptor): 16%

Cc1cc2c(cc1Cc1ccc(C(=O)N3CCC(n4c(=O)[nH]c5ccccc54)CC3)o1)C(C)(C)CCC2(C)C [drawing 1246]
inhibition at 10 µM (mouse GnRH receptor): 80%

Cc1cc2c(cc1Cc1ccc(C(=O)NCC(C)(C)CO)o1)C(C)(C)CCC2(C)C [drawing 1438]
inhibition at 10 µM (mouse GnRH receptor): 84%

Cc1cc2c(cc1Cc1ccc(C(=O)N(Cc3cccnc3)Cc3cccnc3)o1)C(C)(C)CCC2(C)C [Compound 610]
remaining activity at 10 µM (mouse GnRH receptor): 0%

CCOC(=O)CCNC(=O)c1ccc(Cc2cc3c(cc2C)C(C)(C)CCC3(C)C)o1 [drawing 1592]
inhibition at 10 µM (mouse GnRH receptor): 99%

Cc1cc2c(cc1Cc1ccc(C(=O)N(C)C3CCN(C)C3)o1)C(C)(C)CCC2(C)C (centres unmarked)
inhibition at 10 µM (mouse GnRH receptor): 89%

Cc1cc2c(cc1Cc1ccc(C(=O)N3CCC(O)(Cc4ccccc4)CC3)o1)C(C)(C)CCC2(C)C
inhibition at 10 µM (mouse GnRH receptor): 67%
